Several values for one entry are separate records, joined by “and”; a condition that tells them apart may be missing. Equal values may be shown once.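 Following 48 hours of exposure in 96-well plates, responses at five concentrations were used to interpolate endpoints linearly. At the GI50, growth is halved. The concentration for full growth arrest is given as TGI.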
What was measured:
Test in all cases: NCI tumour cell line growth inhibition, 48 h
[1] = tested on: CAKI-1 renal
[2] = tested on: HL-60(TB) leukemia
[3] = tested on: K-562 leukemia
[4] = tested on: RXF 393 renal
[5] = tested on: TK-10 renal
[6] = tested on: UACC-62 melanoma
[7] = tested on: NCI-H226 lung
[8] = tested on: SK-MEL-5 melanoma
[9] = tested on: MOLT-4 leukemia
[10] = tested on: MDA-MB-435

Compound: CN(C)C(=S)/N=c1\ss/c(=N\S(=O)(=O)c2ccccc2)n1-c1ccccc1
- TGI [1]: > 100 µM
- TGI [2]: > 100 µM
- TGI [3]: > 100 µM
- TGI [4]: > 100 µM
- TGI [5]: > 100 µM
- TGI [6]: > 100 µM
- TGI [7]: > 100 µM
- TGI [8]: 78.3 µM
- TGI [9]: > 100 µM

Compound: C=C(C)[C@@H]1CC[C@@]2(C(=O)O)CC[C@]3(C)C(CCC4[C@@]5(C)CCC(OS(=O)(=O)c6ccccc6)C(C)(C)C5CC[C@]43C)C12 (stereo partly specified)
- GI50 [1]: 2.36 µM
- TGI [1]: 9.89 µM
- GI50 [10]: 4.49 µM
- TGI [10]: 20.1 µM
- GI50 [4]: 13.8 µM
- TGI [4]: 29.7 µM
- GI50 [5]: 3.84 µM
- TGI [5]: 25.4 µM
- GI50 [6]: 2.55 µM
- TGI [6]: 19.3 µM
- GI50 [7]: 7.07 µM
- TGI [7]: 28.3 µM
- GI50 [8]: 1.4 µM
- TGI [8]: 17 µM

Compound: N#Cc1c(N)c(C(=O)O)nn(-c2cccc(C(F)(F)F)c2)c1=O
- TGI [1]: > 100 µM
- TGI [2]: > 100 µM
- TGI [3]: > 100 µM
- TGI [4]: > 100 µM
- TGI [5]: > 100 µM
- TGI [6]: > 100 µM
- TGI [8]: > 100 µM
- TGI [9]: > 100 µM

Compound: CCOC(=O)Cc1nc(/C(C#N)=C/c2ccco2)[nH]c(=O)c1C#N
- TGI [1]: > 100 µM
- TGI [2]: > 100 µM
- TGI [3]: > 100 µM
- TGI [4]: > 100 µM
- TGI [5]: > 100 µM
- TGI [6]: > 100 µM
- TGI [7]: > 100 µM
- TGI [8]: > 100 µM
- TGI [9]: > 100 µM

Compound: CC1=Nc2c(ccc3c2C(=O)c2ccccc2C3=O)NC(c2ccncc2)C1 (stereo unspecified)
- GI50 [1]: 3.77 µM
- TGI [1]: > 100 µM
- TGI [2]: > 100 µM
- TGI [3]: > 100 µM
- GI50 [4]: > 100 µM
- TGI [4]: > 100 µM
- TGI [5]: > 100 µM
- TGI [6]: > 100 µM
- GI50 [7]: > 100 µM
- TGI [7]: > 100 µM
- TGI [8]: > 100 µM
- TGI [9]: > 100 µM

Compound: COc1cc(/C=C\c2ccc(O)cc2)cc(OC)c1OC
- TGI [1]: > 100 µM
- TGI [2]: > 29.3 µM
- TGI [3]: > 100 µM
- TGI [4]: > 25.1 µM
- TGI [5]: > 100 µM
- TGI [6]: > 29.1 µM
- TGI [7]: > 100 µM
- TGI [8]: 18.6 µM
- TGI [9]: > 100 µM

Compound: CC(=O)O[C@H]1C(=O)[C@@]2(C)[C@H]([C@H](OC(=O)c3ccccc3)[C@]3([O-])C[C@H](OC(=O)[C@H]([O-])[C@@H](NC(=O)c4ccccc4)c4ccccc4)C(C)=C1C3(C)C)[C@]1(OC(C)=O)CO[C@@H]1C[C@@H]2[O-].[Fe+3]
- GI50 [1]: 2.41 µM and 3.53 µM
- TGI [1]: 54.5 µM and > 100 µM
- GI50 [2]: 0.0639 µM
- TGI [2]: 0.301 µM
- GI50 [3]: 0.0839 µM and 0.0988 µM
- TGI [3]: 65 µM and > 100 µM
- GI50 [4]: 0.117 µM and 0.0955 µM
- GI50 [5]: 0.591 µM and 0.658 µM
- TGI [5]: 65 µM and > 100 µM
- GI50 [6]: 0.238 µM and 0.0875 µM
- TGI [6]: 65 µM and 15.8 µM
- GI50 [7]: 0.227 µM and 0.768 µM
- TGI [7]: 65 µM and 70.7 µM
- GI50 [8]: 0.0521 µM and 0.0683 µM
- TGI [8]: 65 µM and 19.6 µM
- TGI [9]: 65 µM and > 100 µM

Compound: Cc1ccc2/c(=C/c3ccc(N(C)C)cc3)c3cc(-c4ccccc4)[n+](C)n3c2c1
- GI50 [1]: 1.57 µM
- TGI [1]: 6.58 µM
- GI50 [10]: 0.037 µM
- TGI [10]: 1.66 µM
- GI50 [3]: < 0.0255 µM
- TGI [3]: > 100 µM
- GI50 [5]: 0.266 µM
- TGI [5]: 2.36 µM
- GI50 [6]: 0.0292 µM
- TGI [6]: 0.252 µM
- GI50 [8]: 0.0344 µM
- TGI [8]: 0.169 µM
- GI50 [9]: 0.0383 µM
- TGI [9]: > 100 µM

Compound: C=C(COC(C)=O)CC(/C=C(\C)CCC=C(C)C)OC(C)=O (stereo unspecified)
- TGI [2]: > 100 µM
- TGI [3]: > 100 µM
- TGI [4]: > 100 µM
- TGI [5]: > 100 µM
- TGI [6]: > 100 µM
- TGI [7]: > 100 µM
- TGI [8]: > 100 µM
- TGI [9]: > 100 µM

Compound: COC(=O)C(Cc1ccccc1)N/C=C\C(=O)c1ccc(Cl)cc1 (stereo unspecified)
- GI50 [1]: 21.3 µM
- TGI [1]: 44.4 µM
- GI50 [10]: 14.1 µM
- TGI [10]: 30.8 µM
- GI50 [3]: 54.7 µM
- TGI [3]: > 100 µM
- GI50 [4]: 20.4 µM
- TGI [4]: 53.3 µM
- GI50 [6]: 19.7 µM
- TGI [6]: 45.8 µM
- GI50 [7]: 26 µM
- TGI [7]: 77.3 µM
- GI50 [8]: 19.3 µM
- TGI [8]: 33.5 µM
- GI50 [9]: 35.2 µM
- TGI [9]: > 100 µM

Compound: CC1(C)CCc2cc3c(cc2O1)OCCC3=O
- TGI [1]: > 100 µM
- TGI [2]: > 100 µM
- TGI [3]: > 100 µM
- TGI [4]: > 100 µM
- TGI [5]: > 100 µM
- TGI [6]: > 100 µM
- TGI [7]: > 100 µM
- TGI [8]: > 100 µM
- TGI [9]: > 100 µM

Compound: COc1ccc(-c2cc(-c3cc(Cl)ccc3Cl)nc3nc(=S)[nH]c(N)c23)cc1
- GI50 [1]: 10.6 µM
- TGI [1]: 62.1 µM
- GI50 [10]: 3.93 µM
- TGI [10]: 17.6 µM
- GI50 [5]: 7.35 µM
- TGI [5]: 38.5 µM
- GI50 [6]: 6.94 µM
- TGI [6]: > 100 µM
- GI50 [8]: 18.2 µM
- TGI [8]: 94.6 µM
- GI50 [9]: 6.36 µM
- TGI [9]: > 100 µM

Compound: Oc1c2c(c(O)c3ccccc13)=N[C@@H](c1ccccc1)[C@H](c1ccccc1)N=2
- TGI [1]: > 100 µM
- TGI [2]: > 100 µM
- TGI [3]: > 100 µM
- TGI [4]: > 100 µM
- TGI [5]: > 100 µM
- TGI [6]: > 100 µM
- TGI [7]: > 100 µM
- TGI [8]: > 100 µM
- TGI [9]: > 100 µM

Compound: c1cc[c]([Sn]([S]c2cccc3cccnc23)([c]2ccccc2)[c]2ccccc2)cc1
- GI50 [1]: 0.0114 µM
- TGI [1]: 0.0421 µM
- GI50 [5]: 0.0446 µM
- TGI [5]: 0.181 µM
- GI50 [6]: 0.0352 µM
- TGI [6]: 0.162 µM
- GI50 [8]: 0.042 µM
- TGI [8]: 0.277 µM

Compound: O=C1CCn2c([nH]c3cccc4cccc2c43)=N1
- TGI [2]: > 100 µM
- TGI [3]: > 100 µM
- TGI [4]: > 100 µM
- TGI [5]: > 100 µM
- TGI [6]: > 100 µM
- TGI [7]: > 100 µM
- TGI [8]: > 100 µM
- TGI [9]: > 100 µM

Compound: O=C(Nc1cc(-c2ccccc2)[nH]n1)c1ccc(Cl)cc1
- GI50 [1]: 2.66 µM
- TGI [1]: > 100 µM
- GI50 [4]: 7.16 µM
- TGI [4]: > 100 µM
- GI50 [5]: 9.22 µM
- TGI [5]: > 100 µM
- GI50 [6]: > 100 µM
- TGI [6]: > 100 µM
- GI50 [7]: 56.7 µM
- TGI [7]: > 100 µM
- GI50 [8]: > 100 µM
- TGI [8]: > 100 µM

Compound: C=C1CC(COc2cc(Cl)nc(N)n2)C1
- GI50 [1]: 22.8 µM
- TGI [1]: 89.3 µM
- GI50 [2]: 35.1 µM
- GI50 [3]: 40 µM
- GI50 [4]: 36.8 µM
- GI50 [7]: 42.5 µM
- GI50 [8]: 44.4 µM
- GI50 [9]: 40.2 µM

Compound: CCOc1cccc2nc3cccc(C(=O)NCCN(C)C)c3nc12
- TGI [3]: 2.62 µM
- TGI [4]: 3.21 µM
- TGI [5]: 7.9 µM
- TGI [6]: 3.38 µM
- TGI [7]: 2.08 µM
- TGI [9]: 0.746 µM

Compound: Cc1cc(C)nc(NS(=O)(=O)c2ccc(Nc3c4ccccc4nc4c(C(=O)N5CCN(CCOS(C)(=O)=O)CC5)ccc(Cl)c34)cc2)n1
- TGI [1]: > 100 µM
- TGI [2]: > 100 µM
- TGI [3]: > 100 µM
- TGI [4]: > 100 µM
- TGI [5]: > 100 µM
- TGI [6]: > 100 µM
- TGI [7]: > 100 µM
- TGI [8]: > 100 µM
- TGI [9]: > 100 µM

Reference: PubChem BioAssay (NCI)
